Tests used:
[1] = test system: HCN4-GFP positive cells derived from H7 embryoid body (pacemaker cells); test: Patch clamp measurement of the beating rate (spontaneous excitation) of the pacemaker cells; type: cell-based, human; details: for effect on beating rate of the pacemaker cells (in words): drug added to perfusion solution, patch clamp
Protocol: Patch clamp: Cells which had been collected by cell sorting were seeded on gelatin-coated, 8-mm diameter cover slips (Warner Instruments) in a number of about 1,500 cells. On or after the next day, a patch clump method was used to observe the automaticity and to analyze functions of ion channels.
The quantification of electrical activities by a patch clump method and of contraction by video recording was carried out.
The quantification of electrical activities by a patch clump method was carried out.
It was ascertained that the beating rate of the pacemaker cells according to the present invention was increased by means of isoproterenol, a sympathetic stimulant, and decreased by means of carbachol, a parasympathetic stimulant. In these experiments, a patch clamp method was used to measure directly electrical phenomena (spontaneous excitation) from the pacemaker cells. To the perfusion solution were added isoproterenol, a sympathetic stimulant, which increased [sic], and then carbachol, a parasympathetic stimulant, to examine their effects.

[2] = test system: heart of a rat with atrioventricular block; test: Intraperitoneal isoproterenol in rat with atrioventricular block implanted with pacemaker cells, electrocardiogram; type: in vivo; details: isoproterenol injected into the peritoneal cavity; AVB rat with implants; FIG. 19
Protocol: Male ICR rats of 10 weeks old were used. Rats were administered with a 0.2 ml injection of an anesthetic (0.2% pentobarbital, MiliQ). Breathing assistance was provided by a mechanical ventilator and electrocardiogram monitoring was performed. A thoracotomy was made using an electrosurgical knife and 15 μl of 30% glycerol was injected using a microsyringe, into a place where the pulmonary artery is attached to the heart. It was ascertained, from the electrocardiogram, whether AVE wave forms (decrease in the beating rate, independent P and QRS waves) appeared when the injection allowed the atrioventricular node to be damaged. If AVB wave forms were not identified, injection of glycerol was done again. Thirty minutes after AVB wave forms were identified, the chest was closed after AVB wave forms were identified on the electrocardiogram. The ventilator was removed from each of the rats, which were subjected to oxygen inhalation at 37° C. When recovered from anesthesia, the rats were returned back to their cages. Pacemaker cells which were GFP positive cells were selected and collected by cell sorting. The pacemaker cells were collected in conical tubes, and then centrifuged at 1,000 rpm for 5 minutes to form a cell pellet, which was then suspended in differentiation induction medium. […]

Structure (SMILES)	beating rate in the presence of carbachol ([1]; carbachol in perfusion solution, after isoproterenol washout, before: 17 beats per 10 seconds, FIG. 16) [beats per 10 seconds]	beating rate after washing out of carbachol ([1]; carbachol washed out, FIG. 16) [beats per 10 seconds]	effect on beating rate of the pacemaker cells (in words) [1]	ventricular rhythm resulting from the implanted pacemaker cells after isoproterenol [2]	beating rate in the presence of isoproterenol ([1]; 10^−5 M isoproterenol in perfusion solution, before: 54 beats per 10 seconds, FIG. 16) [beats per 10 seconds]	beating rate after washing out of isoproterenol ([1]; washout after 10^−5 M isoproterenol, FIG. 16) [beats per 10 seconds]
C[N+](C)(C)CCOC(N)=O [carbachol]	8	14	decreased	–	–	–
CC(C)NCC(O)c1ccc(O)c(O)c1 (stereo not shown) [isoproterenol]	–	–	increased	accelerated (tachycardia)	61	45
